Converted amounts (≈) assume the structure as drawn. Like-named read-outs stand apart in the source and are kept apart here.
Assays:
[1] = tested on: HIV-1SF162 virus strain; experiment: Inhibition activity on TZM-bl cells infected with HIV-1SF162; conditions: for EC50: Human immunodeficiency virus 1, TZM-bl; for therapeutic index (TI): TZM-bl cells infected with HIV-1SF162
[2] = molecular target: CCR5 (Homo sapiens (Human), UniProt P51681); experiment: Calcium flux inhibition experiment; type: cell-based; conditions: for IC50: HEK293/CCR5-Gα16 cell line, calcium flux, read-out: CCR5 IC50; for calcium influx inhibition effect in words, versus positive control compounds: conclusion from Table 1
Description: Experiment apparatus: FlexStation II
Experiment materials: HEK293/CCR5-Gα16 cell line, Fluo-4calcium dye (fluorescent-4 calcium ion dye) and FlexStation instrument.
Experiment theory: Activation of the receptor can cause the activation of Gα16 protein, thereby activating phospholipase C (PLC) to generate IP3 and DAG by establishing CCR5 and Ga16 co-transfected cell line. IP3 can bind to IP3 receptors on the endoplasmic reticulum and mitochondria in a cell, which can cause the release of intracellular calcium. Thus, determination of changes in intracellular calcium can be used as a method to detect CCR5 activation state. Fluo-4/AM is a fluorescent probe indicator for calcium used to measure calcium ion. As a non-polar lipid-soluble compound, after it enters into cells, AM group is dissociated to release Fluo-4 under the effect of cell lipolysis enzyme. Fluo-4 is a polar molecule and not easy to go through the lipid bilayer membrane, therefore it can stay within the cells for a long time. Ultimately, the level of activated Ga protein can be reflected by measuring the excited fluorescence intensity. If the screened compound can activate CCR5, it can greatly increase the calcium flux reaction; on the contrary, if the screened compound can antagonize CCR5, it can greatly reduce calcium flux reaction.
1. HEK293 cells which can stably express CCR5 were inoculated in a 96-well plate and incubated overnight.
2. The medium in each well into which cells were innoculated was removed and 40 μl/well of freshly prepared dye was added. The plate was placed in a 37° C. incubator and incubated for 40 minutes at constant temperature.
3. The medicament to be determined was diluted with calcium buffer to eight concentration gradients, which is 1×10^−4 M, 1×10^−5 M, 1×10^−6 M, 1×10^−7 M, 1×10^−8 M, 1×10^−9 M, 1×10^−10 M, and 1×10^−11 M, respectively, and homogeneously mixed.
4. The dye was removed. Freshly prepared calcium buffer was used to wash for one time, 50 μl of calcium buffer was added.
5. FlexStation II was used for detection. 25 μl of calcium buffer containing the medicament to be determined was added automatically from the 15th second.

[3] = Cytotoxicity (CC50) in TZM-bl cells; type: cell-based; conditions: human
[4] = TZM-bl cells (Table 3), read-out: CC50

CCR5, sequence (P51681 whole entry): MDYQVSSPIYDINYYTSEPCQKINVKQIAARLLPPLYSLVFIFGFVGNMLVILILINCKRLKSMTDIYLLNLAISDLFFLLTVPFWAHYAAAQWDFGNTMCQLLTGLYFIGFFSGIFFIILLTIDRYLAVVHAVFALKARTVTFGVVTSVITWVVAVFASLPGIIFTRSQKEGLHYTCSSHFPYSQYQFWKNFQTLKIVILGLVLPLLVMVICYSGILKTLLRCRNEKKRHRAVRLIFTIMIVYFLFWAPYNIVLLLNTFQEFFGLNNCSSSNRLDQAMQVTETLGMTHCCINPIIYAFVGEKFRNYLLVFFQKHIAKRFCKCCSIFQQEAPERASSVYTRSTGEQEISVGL

Structure (SMILES)	EC50 [1] [µg/mL]	therapeutic index (TI) [1]	IC50 [2] [nM]	calcium influx inhibition effect in words, versus positive control compounds [2]	CC50 [3] [µg/mL]	CC50 [3, 4] [µg/mL]	CC50 at 3 days [3, 4] [µg/mL]	CC50 at 3 days [3] [µg/mL]
Cc1nnc(C(C)C)n1C1CC2CCC(C1)N2CC[C@H](NC(=O)C1CCCCC1)c1ccc(F)s1 (stereo partly drawn) [Compound 38, N-[(1S)-3-[exo-3-(3-isopropyl-5-methyl-4H-1,2,4-triazol-4-yl)-8-azabicyclo[3.2.1]octane-8-yl]-1-(5-fluorothiophen-2-yl)propyl]cyclohexane-1-carboxamide]	2.61 (≈ 5.2 µM)	>73.64	9.33	comparable to the positive control compounds	> 200			
Cc1ccc([C@H](CCN2C3CCC2CC(n2c(C)nnc2C(C)C)C3)NC(=O)Cc2ccc(F)cc2)s1 (stereo partly drawn) [Compound 33, 4-fluoro-N-[(1S)-3-[exo-3-(3-isopropyl-5-methyl-4H-1,2,4-triazol-4-yl)-8-azabicyclo[3.2.1]octane-8-yl]-1-(5-methylthiophen-2-yl)propyl]phenylacetamide]	0.147 (≈ 0.281 µM)	>328.95	25		> 200			
CCC(=O)N1CCc2c(nc(C)n2C2CC3CCC(C2)N3CC[C@H](NC(C)=O)c2nccs2)C1 (stereo partly drawn) [Compound 120, N-{(1S)-3-[(3-endo)-3-(5-propionyl-2-methyl-4,5,6,7-tetrahydro-1H-imidazo[4,5-c]pyridin-1-yl)-8-azabicyclo[3.2.1]octane-8-yl]-1-(thiazol-2-yl)-propyl}acetamide]	0.831 (≈ 1.71 µM)	>240.76	27.7		> 200			
COC(=O)N1CCc2c(nc(C)n2C2CC3CCC(C2)N3CC[C@H](NC(C)=O)c2ccc(F)s2)C1 (stereo partly drawn) [Compound 133, Methyl 1-{(endo)-8-[(S)-3-acetamido-3-(5-fluorothiophen-2-yl)-propyl]-8-azabicyclo[3.2.1]octan-3-yl}-2-methyl-1,4,6,7-tetrahydro-5H-imidazo[4,5-c]pyridine-5-carboxylate]	0.152 (≈ 0.302 µM)	>1313.56	1.78	better than the positive control compounds	> 200			
CCCC(=O)N1CCc2c(nc(C)n2C2CC3CCC(C2)N3CC[C@H](NC(C)=O)c2ccc(F)s2)C1 (stereo partly drawn) [Compound 136, N-{(1S)-3-[(3-endo)-3-(5-n-butyryl-2-methyl-4,5,6,7-tetrahydro-1H-imidazo[4,5-c]pyridin-1-yl)-8-azabicyclo[3.2.1]octane-8-yl]-1-(5-fluorothiophen-2-yl)-propyl}acetamide]	0.011 (≈ 0.0213 µM)	>4834.51	22.1			> 200		
CC(=O)N[C@@H](CCN1C2CCC1CC(n1c(C)nc3c1CCN(C(C)=O)C3)C2)c1ccc(Cl)s1 (stereo partly drawn) [Compound 125, N-{(1S)-3-[(3-endo)-3-(5-acetyl-2-methyl-4,5,6,7-tetrahydro-1H-imidazo[4,5-c]pyridin-1-yl)-8-azabicyclo[3.2.1]octane-8-yl]-1-(5-chlorothiophen-2-yl)-propyl}acetamide]	0.286 (≈ 0.567 µM)	>699.27	12.2		> 200			
Cc1ccc([C@H](CCN2C3CCC2CC(n2c(C)nnc2C(C)C)C3)NC(=O)C2CCCCC2)s1 (stereo partly drawn) [Compound 30, N-[(1S)-3-[exo-3-(3-isopropyl-5-methyl-4H-1,2,4-triazol-4-yl)-8-azabicyclo[3.2.1]octane-8-yl]-1-(5-methylthiophen-2-yl)propyl]cyclohexane-1-carboxamide]	0.06 (≈ 0.121 µM)	>2150.54	24		> 200			
CC(=O)N[C@@H](CCN1C2CCC1CC(n1c(C)nc3c1CCN(C(=O)C1CC1)C3)C2)c1ccc(F)s1 (stereo partly drawn) [Compound 132, N-{(1S)-3-[(3-endo)-3-(5-cyclopropionyl-2-methyl-4,5,6,7-tetrahydro-1H-imidazo[4,5-c]pyridin-1-yl)-8-azabicyclo[3.2.1]octane-8-yl]-1-(5-fluorothiophen-2-yl)-propyl}acetamide]	0.097 (≈ 0.189 µM)	>2063.25	22.2			> 200		
CC(=O)N[C@@H](CCN1C2CCC1CC(n1c(C)nnc1C(C)C)C2)c1csc2ccccc12 (stereo partly drawn) [Compound 28, N-[(1S)-3-[exo-3-(3-isopropyl-5-methyl-4H-1,2,4-triazol-4-yl)-8-azabicyclo[3.2.1]octane-8-yl]-1-(benzothiophen-3-yl)propyl]acetamide]	> 40						> 200	
CC(=O)N[C@@H](CCN1C2CCC1CC(n1c(C)nc3c1CCN(C(C)=O)C3)C2)c1nccs1 (stereo partly drawn) [Compound 118, N-{(1S)-3-[(3-endo)-3-(5-acetyl-2-methyl-4,5,6,7-tetrahydro-1H-imidazo[4,5-c]pyridin-1-yl)-8-azabicyclo[3.2.1]octane-8-yl]-1-(thiazol-2-yl)-propyl}acetamide]	0.669 (≈ 1.42 µM)	>168.03	16.9			> 200		
CC(=O)N[C@@H](CCN1C2CCC1CC(n1c(C)nc3c1CCN(C(C)=O)C3)C2)c1ccc(F)s1 (stereo partly drawn) [Compound 131, N-{(1S)-3-[(3-endo)-3-(5-acetyl-2-methyl-4,5,6,7-tetrahydro-1H-imidazo[4,5-c]pyridin-1-yl)-8-azabicyclo[3.2.1]octane-8-yl]-1-(5-fluorothiophen-2-yl)-propyl}acetamide]	0.098 (≈ 0.201 µM)	>1302.27	6.57	better than the positive control compounds		> 200		
Cc1ccc([C@H](CCN2C3CCC2CC(n2c(C)nnc2C(C)C)C3)NC(=O)c2ccccc2)s1 (stereo partly drawn) [Compound 32, N-[(1S)-3-[exo-3-(3-isopropyl-5-methyl-4H-1,2,4-triazol-4-yl)-8-azabicyclo[3.2.1]octane-8-yl]-1-(5-methylthiophen-2-yl)propyl]benzamide]	> 40		8.35	comparable to the positive control compounds	> 200			
COC(=O)N1CCc2c(nc(C)n2C2CC3CCC(C2)N3CC[C@H](NC(C)=O)c2nccs2)C1 (stereo partly drawn) [Compound 119, Methyl 1-{(endo)-8-[(S)-3-acetamido-3-(thiazol-2-yl)-propyl]-8-azabicyclo[3.2.1]octan-3-yl}-2-methyl-1,4,6,7-tetrahydro-5H-imidazo[4,5-c]pyridine-5-carboxylate]	0.738 (≈ 1.52 µM)	>270.84	4.77	better than the positive control compounds	> 200			
CC(=O)N[C@@H](CCN1C2CCC1CC(n1c(C)nc3c1CCN(C(=O)C1CC1)C3)C2)c1nccs1 (stereo partly drawn) [Compound 122, N-{(1S)-3-[(3-endo)-3-(5-cyclopropionyl-2-methyl-4,5,6,7-tetrahydro-1H-imidazo[4,5-c]pyridin-1-yl)-8-azabicyclo[3.2.1]octane-8-yl]-1-(thiazol-2-yl)-propyl}acetamide]	0.69 (≈ 1.39 µM)	>290.06	24.5		> 200			
Cc1nnc(C(C)C)n1C1CC2CCC(C1)N2CC[C@H](NC(=O)C1CCCC1)c1ccc(F)s1 (stereo partly drawn) [Compound 39, N-[(1S)-3-[exo-3-(3-isopropyl-5-methyl-4H-1,2,4-triazol-4-yl)-8-azabicyclo[3.2.1]octane-8-yl]-1-(5-fluorothiophen-2-yl)propyl]cyclopentane-1-carboxamide]	1.02 (≈ 2.09 µM)	>196.08	1.41	better than the positive control compounds		> 200		
CC(=O)N[C@@H](CCN1C2CCC1CC(n1c(C)nc3c1CCN(C(=O)C(C)C)C3)C2)c1ccc(F)s1 (stereo partly drawn) [Compound 135, N-{(1S)-3-[(3-endo)-3-(5-isobutyryl-2-methyl-4,5,6,7-tetrahydro-1H-imidazo[4,5-c]pyridin-1-yl)-8-azabicyclo[3.2.1]octane-8-yl]-1-(5-fluorothiophen-2-yl)-propyl}acetamide]	0.155 (≈ 0.301 µM)	>1222.11	8.28	comparable to the positive control compounds	> 200			
Cc1nnc(C(C)C)n1C1CC2CCC(C1)N2CC[C@H](NC(=O)C1CCC(F)(F)CC1)c1ccc(F)s1 (stereo partly drawn) [Compound 37, 4,4-difluoro-N-[(1S)-3-[exo-3-(3-isopropyl-5-methyl-4H-1,2,4-triazol-4-yl)-8-azabicyclo[3.2.1]octane-8-yl]-1-(5-fluorothiophen-2-yl)propyl]cyclohexane-1-carboxamide]	0.647 (≈ 1.2 µM)	>309.12						> 200

From patent publication US10167299B2, “1-(3-aminopropyl) substituted cyclic amine compounds, preparation method therefor, and pharmaceutical compositions and uses thereof” (SHANGHAI INSTITUTE OF MATERIA MEDICA, CHINESE ACADEMY OF …, priority 2013, dated 2019)
